# Legend:
# [1] = rat; cited from earlier work
# [2] = test system: human A549 xenograft; experiment: Anti-tumor effect in human A549 xenograft model; type: in vivo; details: for mortality: study period of 30 days
# Experimental: These xenografts representative of NSCLC and CML respectively are considered to be highly aggressive and resistant to chemotherapy treatment. Therefore, any new chemotherapy agent against these cancers is very much sought. For the experiment, a total of 12 mice bearing A549 or K562 tumors of volume in the range of ˜50 mm^3 were divided into two groups (I & II), each group comprising of six mice. […] The group II was administered DSePA daily dissolved in sterile saline through oral route at a dosage of 1 mg/Kg body weight. The tumor volume and body weight of mice from each group were monitored daily for a total period of 30 days from the day of start. The animals were also checked for mortality if any throughout the study period. The experiment in A549 tumor was repeated three times (n=18 for each group) and the experiment in K562 tumor was repeated two times (n=12 for each group). […] This is the first study to show the anticancer activity of DSePA per se using xenograft model of human lung cancer (A549) and human leukemia (K562) cells in mice. Discovery of the application of the anticancer activity of DSePA is a novel invention in context of its probable usage in treatment for lung and leukemia cancer. More specifically the invention proposes a treatment regime and route of administering DSePA to inhibit the growth of human NSCLC (A549) and CML (K562).
# For the optimization of the oral dosage of DSePA, a total of 24 mice bearing A549 or K562 xenograft of volume in the range of ˜50 mm^3 were divided into four groups (I-IV), each group comprising of six mice. […] The groups II, III and IV were administered DSePA dissolved in sterile saline through oral route at the dosage of 1, 2.5 and 5 mg/kg body weight respectively. The administration of DSePA was performed daily for 4 weeks. The tumor volume and body weight of mice from each group were monitored daily for a total period of 30 days from the day of start. The animals were also checked for mortality if any throughout the study period.
# Animal maintenance—All animal studies were approved by the Institutional Animal Ethics Committee. Animals were housed under standard conditions (20±2° C., 65-70% humidity, 12 h/12 h day/night cycle, balanced laboratory diet and tap water ad libitum.
# Xenograft tumor model-A549 and K562 tumor models were developed by Anticancer Drug Screening Facility of Advanced Centre for Treatment, Research and Education in Cancer (ACTREC), India. Briefly, Male/female NOD-SCID aged 6-7 weeks were housed in the laboratory animal facility of ACTREC. Donor mice carrying K562 or A549 xenografts were developed by injecting 2×10^6 cells in 100 μl of DMEM/RPMI, subcutaneously in their right flank. When tumors attained the size of approximately 2000 mm^3, the animals were sacrificed. Tumors were obtained and further cut into 2-3 mm fragments and implanted subcutaneously in the right flank of 6-7 weeks old recipient SCID mice. Tumors were allowed to grow to a size of approximately 50 mm^3 following which animals were divided into groups of six animals each for evaluation. A fresh DSePA solution was prepared by dissolution in sterile saline before each administration by intraperitoneal/oral route. The tumor efficacy of DSePA was determined by monitoring parameters like tumor volume and T/C. Tumors were assumed spherical and volume was calculated using following equations (1 & 2): […]
# Where d1 (mm) and d2 (mm) are diameters measured in two perpendicular planes. T/C is defined as the ratio of the mean tumor volume of DSePA treated groups with the mean tumor volume of control group on the day of observation.
# [3] = 1 mg/kg body weight daily oral, day 1
# [4] = 1 mg/kg body weight daily oral, day 5
# [5] = 1 mg/kg body weight daily oral, day 9
# [6] = 1 mg/kg body weight daily oral, day 12
# [7] = 1 mg/kg body weight daily oral, day 15
# [8] = 1 mg/kg body weight daily oral, day 18
# [9] = 1 mg/kg body weight daily oral, day 21
# [10] = 1 mg/kg body weight daily oral, day 24
# [11] = 1 mg/kg body weight daily oral, day 27
# [12] = 1 mg/kg body weight daily oral, day 31
# [13] = 2.5 mg/kg body weight daily oral, day 1
# [14] = 2.5 mg/kg body weight daily oral, day 5
# [15] = 2.5 mg/kg body weight daily oral, day 9
# [16] = 2.5 mg/kg body weight daily oral, day 12
# [17] = 2.5 mg/kg body weight daily oral, day 15
# [18] = 2.5 mg/kg body weight daily oral, day 18
# [19] = 2.5 mg/kg body weight daily oral, day 21
# [20] = 2.5 mg/kg body weight daily oral, day 24
# [21] = 2.5 mg/kg body weight daily oral, day 27
# [22] = 2.5 mg/kg body weight daily oral, day 31
# [23] = 5 mg/kg body weight daily oral, day 1
# [24] = 5 mg/kg body weight daily oral, day 5
# [25] = 5 mg/kg body weight daily oral, day 9
# [26] = 5 mg/kg body weight daily oral, day 12
# [27] = 5 mg/kg body weight daily oral, day 15
# [28] = 5 mg/kg body weight daily oral, day 18
# [29] = 5 mg/kg body weight daily oral, day 21
# [30] = 5 mg/kg body weight daily oral, day 24
# [31] = 5 mg/kg body weight daily oral, day 27
# [32] = 5 mg/kg body weight daily oral, day 31
structure (smiles),measurement,setting,value
"O=C(O)CC[Se][Se]CCC(=O)O [DSePA, 3,3′-diselenodipropionic acid]",estimated median oral Lethal dose (LD50) cut-off,[1],25 mg/kg
same,tumor growth inhibition vs control,"[2]; 1 mg/Kg body weight daily oral, three independent experiments",significantly (P<0.05) inhibited the growth
same,overall reduction (relative tumor volume vs tumor control),"[2]; 1 mg/Kg orally daily, end of study period (30 days), n=18, P=0.0009",~2 folds
same,mortality,"[2]; 1 mg/Kg orally daily, three independent studies",did not show any mortality
same,% S (Survival),[2]; [3],100%
same,RTV (Relative Tumor Volume),[2]; [3],1
same,T/C (T (test)/C (control)),[2]; [3],1
same,% S (Survival),[2]; [4],100%
same,RTV (Relative Tumor Volume),[2]; [4],1.23
same,T/C (T (test)/C (control)),[2]; [4],0.98
same,% S (Survival),[2]; [5],100%
same,RTV (Relative Tumor Volume),[2]; [5],1.64
same,T/C (T (test)/C (control)),[2]; [5],0.98
same,% S (Survival),[2]; [6],100%
same,RTV (Relative Tumor Volume),[2]; [6],1.83
same,T/C (T (test)/C (control)),[2]; [6],0.87
same,% S (Survival),[2]; [7],100%
same,RTV (Relative Tumor Volume),[2]; [7],1.80
same,T/C (T (test)/C (control)),[2]; [7],0.76
same,% S (Survival),[2]; [8],100%
same,RTV (Relative Tumor Volume),[2]; [8],2.36
same,T/C (T (test)/C (control)),[2]; [8],0.71
same,% S (Survival),[2]; [9],100%
same,RTV (Relative Tumor Volume),[2]; [9],2.47
same,T/C (T (test)/C (control)),[2]; [9],0.68
same,% S (Survival),[2]; [10],100%
same,RTV (Relative Tumor Volume),[2]; [10],2.66
same,T/C (T (test)/C (control)),[2]; [10],0.52
same,% S (Survival),[2]; [11],100%
same,RTV (Relative Tumor Volume),[2]; [11],2.94
same,T/C (T (test)/C (control)),[2]; [11],0.47
same,% S (Survival),[2]; [12],100%
same,RTV (Relative Tumor Volume),[2]; [12],3.70
same,T/C (T (test)/C (control)),[2]; [12],0.45
same,% S (Survival),[2]; [13],100%
same,RTV (Relative Tumor Volume),[2]; [13],1
same,T/C (T (test)/C (control)),[2]; [13],1
same,% S (Survival),[2]; [14],100%
same,RTV (Relative Tumor Volume),[2]; [14],0.99
same,T/C (T (test)/C (control)),[2]; [14],0.79
same,% S (Survival),[2]; [15],100%
same,RTV (Relative Tumor Volume),[2]; [15],1.10
same,T/C (T (test)/C (control)),[2]; [15],0.66
same,% S (Survival),[2]; [16],100%
same,RTV (Relative Tumor Volume),[2]; [16],1.25
same,T/C (T (test)/C (control)),[2]; [16],0.59
same,% S (Survival),[2]; [17],100%
same,RTV (Relative Tumor Volume),[2]; [17],1.03
same,T/C (T (test)/C (control)),[2]; [17],0.43
same,% S (Survival),[2]; [18],100%
same,RTV (Relative Tumor Volume),[2]; [18],1.31
same,T/C (T (test)/C (control)),[2]; [18],0.39
same,% S (Survival),[2]; [19],100%
same,RTV (Relative Tumor Volume),[2]; [19],1.40
same,T/C (T (test)/C (control)),[2]; [19],0.38
same,% S (Survival),[2]; [20],100%
same,RTV (Relative Tumor Volume),[2]; [20],1.81
same,T/C (T (test)/C (control)),[2]; [20],0.35
same,% S (Survival),[2]; [21],100%
same,RTV (Relative Tumor Volume),[2]; [21],1.96
same,T/C (T (test)/C (control)),[2]; [21],0.31
same,% S (Survival),[2]; [22],100%
same,RTV (Relative Tumor Volume),[2]; [22],2.84
same,T/C (T (test)/C (control)),[2]; [22],0.35
same,% S (Survival),[2]; [23],100%
same,RTV (Relative Tumor Volume),[2]; [23],1
same,T/C (T (test)/C (control)),[2]; [23],1
same,% S (Survival),[2]; [24],100%
same,RTV (Relative Tumor Volume),[2]; [24],0.94
same,T/C (T (test)/C (control)),[2]; [24],0.75
same,% S (Survival),[2]; [25],100%
same,RTV (Relative Tumor Volume),[2]; [25],1.29
same,T/C (T (test)/C (control)),[2]; [25],0.76
same,% S (Survival),[2]; [26],100%
same,RTV (Relative Tumor Volume),[2]; [26],1.30
same,T/C (T (test)/C (control)),[2]; [26],0.62
same,% S (Survival),[2]; [27],100%
same,RTV (Relative Tumor Volume),[2]; [27],1.19
same,T/C (T (test)/C (control)),[2]; [27],0.50
same,% S (Survival),[2]; [28],100%
same,RTV (Relative Tumor Volume),[2]; [28],2.22
same,T/C (T (test)/C (control)),[2]; [28],0.67
same,% S (Survival),[2]; [29],100%
same,RTV (Relative Tumor Volume),[2]; [29],2.34
same,T/C (T (test)/C (control)),[2]; [29],0.65
same,% S (Survival),[2]; [30],100%
same,RTV (Relative Tumor Volume),[2]; [30],2.94
same,T/C (T (test)/C (control)),[2]; [30],0.57
same,% S (Survival),[2]; [31],100%
same,RTV (Relative Tumor Volume),[2]; [31],2.92
same,T/C (T (test)/C (control)),[2]; [31],0.47
same,% S (Survival),[2]; [32],100%
same,RTV (Relative Tumor Volume),[2]; [32],5.30
same,T/C (T (test)/C (control)),[2]; [32],0.65
same,tumor growth inhibition vs control,"[2]; dosage optimization, 1 mg/kg body weight daily oral for 4 weeks",significantly (P<0.05) inhibited the growth of A549 tumor from day 21 onwards
same,tumor growth inhibition vs control,"[2]; dosage optimization, 2.5 mg/kg body weight daily oral for 4 weeks",significantly (P<0.05) inhibited the growth of A549 tumor from day 21 onwards
same,tumor growth inhibition vs control,"[2]; dosage optimization, 5 mg/kg body weight daily oral, experimental end point (31st day)",did not show any significant suppression of A549 tumor
same,mortality,"[2]; dosage optimization, 1, 2.5 and 5 mg/kg daily oral",did not show any mortality
same,T/C achieved,"[2]; lung model, 1 mg/kg body weight daily oral",≤ 0.42
same,minimum dosage to achieve optimum efficacy,[2]; oral daily,1 mg/kg body weight
